The record followed here is EP0399653B1, “Anticonvulsant triazolo[4,5-c]pyridine derivatives” (THE WELLCOME FOUNDATION LIMITED, priority 1989, dated 1990).

This test is described as follows: standard maximal electroshock test (MES), anticonvulsant activity. Particulars: tested as HCl salt. The test is classed as in vivo. The protocol: The anticonvulsant activity of certain compounds of the present invention were determined by a standard maximal electroshock test (MES); that described by L.A.Woodbury and V.D.Davenport, Arch. Int.Pharmacodyn, 1952 92 97.
For orientation: The maximal electroshock test induces tonic seizures with an electrical stimulus.

Where [1] appears, read: ip, I.P administration, read-out: ED50.I.P.
Setting [2] is: po, P.O administration, read-out: ED50.P.O.

SMILES strings stand for the structures. Counter-ions that a name gives are not always drawn. Like-named read-outs stand apart in the source and are kept apart here.

For the compound `CNc1nccc2c1nnn2Cc1ccccc1F` [Example 1, 1-(2-fluorobenzyl)-4-(methylamino)-1H-1,2,3-triazolo[4,5-c]pyridine], the ED50 (commonly the dose that gives a 50% effect, or the effect in half of the subjects) stood at 4.5 mg/kg under setting [1] and 4.4 mg/kg under setting [2].
The matching figures for `Fc1ccccc1Cn1nnc2c(NC3CC3)nccc21` [Example 2, 4-(cyclopropylamino)-1-(2-fluorobenzyl)-1H-1,2,3-triazolo [4,5-c] pyridine]: 4.8 mg/kg and 6.3 mg/kg.
The matching figures for `CCNc1nccc2c1nnn2Cc1ccccc1F` [Example 3, 4-(ethylamino)-1-(2-fluorobenzyl)-1H-1,2,3-triazolo[4,5-c] pyridine]: 8.3 mg/kg and 10.3 mg/kg.
On to `CN(C)c1nccc2c1nnn2Cc1ccccc1F` [Example 4, 4-(dimethylamino)-1-(2-fluorobenzyl)-1H-1,2,3-triazolo [4,5-c]pyridine], for which the median effective dose (ED50) worked out at 6.3 mg/kg under setting [1] and 6.6 mg/kg under setting [2].
The matching figures for `CNc1nccc2c1nnn2Cc1c(F)cccc1F` [Example 5, 1-(2,6-difluorobenzyl)-4-(methylamino)-1H-1,2,3-triazolo [4,5-c] pyridine]: 7.8 mg/kg and 5.3 mg/kg.
The matching figures for `Nc1nccc2c1nnn2Cc1c(F)cccc1F` [Example 6, 4-amino-1-(2,6,-difluorobenzyl)-1H-1,2,3-triazolo [4,5-c]pyridine hydrochloride]: 6.3 mg/kg and 3.7 mg/kg.
The matching figures for `CNc1nccc2c1nnn2Cc1cc(F)ccc1F` [Example 7, 1-(2,5-difluorobenzyl)-4-(methylamino)-1H-1,2,3-triazolo [4,5-c]pyridine]: 5 mg/kg and 4.3 mg/kg.
For `CNc1nccc2c1nnn2Cc1ccccc1` [Example 8, 1-benzyl-4-(methylamino)-1H-1,2,3-triazolo[4.5-c]pyridine], the ED50 is, setting by setting: under setting [1], 7.8 mg/kg; under setting [2], 8.9 mg/kg.
As to `Fc1cccc(F)c1Cn1nnc2c(NC3CC3)nccc21` [Example 10, 4-(cyclopropylamino)-1-(2,6-difluorobenzyl)-1H-1,2,3-triazolo[4,5-c]pyridine], the ED50 was 4.1 mg/kg under setting [1] and 8.1 mg/kg under setting [2].
